According to patent US8697661B2, “Use of spinosyns and spinosyn compositions against herpesviridae viral infections” (priority 2009, dated 2014):
Read-outs that look alike come from different tables or passages of the source.

Experiments:
[1] = test system: murine Leukemia Virus (ATCC VR-1445); assay: Inhibition of murine Leukemia Virus in feline PG4 cells; type: cell-based; conditions: 10 μg/ml spinosad, virus load of 30 infectious units
[2] = test system: Herpes Simplex Virus 1 McIntyre (HSV1); assay: IC50 assay against HSV1 in Vero cells (cytopathic effect); conditions: 100 infectious units of Herpes Simplex 1, up to 5 days
Method: We performed an IC50 assay, in which the amount of virus in the quadruplicate assay wells is identical, and the concentration of drug varies over a range of ten concentrations. This assay was performed in a 48 well tissue culture dish, each well containing the appropriate cell line at approximately 90% confluence. […] Approximately 100 infectious units per well were added to each test well. Cells, HSV1 virus and drug are incubated for up to 5 days and cytopathic effect is determined.

[3] = test system: Plasmodium falciparum, strain 3D7; conditions: 2% spinosad dispersion in DMSO
[4] = test system: isolated mitochondria of H460 cells; assay: Oxygen consumption in isolated mitochondria, Seahorse XF24; type: biochemical; conditions: 4° C. for three hours
[5] = test system: DU 145 Human prostatic carcinoma cells; conditions: for Cell Survival (% of Control; mean ± S.D.): 24-hour exposure, 24 h post end of exposure
[6] = test system: Leishmania donovati MON-2 promastigotes; assay: In vitro test against Leishmania promastigotes; conditions: read-out: Promastigotes IC50; stationary-phase promastigotes, 26° C.
H460 cells = assay: Cytotoxicity on H460 cells, ApoTox-Glo Triplex assay; type: cell-based
[7] = test system: Leishmania donovati MON-2 amastigotes; assay: In vitro test against Leishmania amastigotes in J774 macrophages; conditions: read-out: Amastigotes IC50; infected J774 macrophages
Plasmodium vinckei = assay: In vivo test against Plasmodium vinckei parasites in mice; conditions: BALB/c female mice, 25 mg/kg intraperitoneally daily for 6 consecutive days in DMSO; vs DMSO control; P=0.0085
[8] = test system: Herpes Simplex Virus type 2, Strain MS-HSV2; assay: IC50 assay against HSV2 in Vero cells; type: cell-based; conditions: 50-100 infectious units of HSV2
[9] = test system: BxPC-3 Human pancreatic adenocarcinoma; conditions: for Cell Survival (% of Control; mean ± S.D.): 24-hour exposure, 24 h post end of exposure
[10] = test system: MDA-MB-231 Human breast adenocarcinoma cells; conditions: for Cell Survival (% of Control; mean ± S.D.): 24-hour exposure, 24 h post end of exposure
[11] = test system: BxPC-3, DU 145, PC-3 and MDA-MB-231; assay: Cell proliferation assay, all cell lines tested; conditions: low dose level 5 μg/mL
Method: (§1) Cell Proliferation assay: for each cell line, cell suspensions ranging in concentration of approximately 2-5×10^5 cells/mL of growth medium were prepared. 1 mL of each of these suspensions was aseptically transferred to a sterile tissue culture flask (12.5 or 25 cm^2) containing fresh growth medium. Three flasks (triplicate) were used for each group, and for each time point of viable cell number/mL measurement at 1, 3 and 5 days post-treatment (9 dishes per group in total). The cells were incubated and allowed to adhere to the bottom of the flasks and proliferate.
(§2) After approximately 24 hours of exposure to treatments, dosing media was replaced with fresh growth media and cells were returned to the incubator and allowed to proliferate.
(§3) Assessment of Cell Proliferation: For each cell line, measurement of viable cell number/mL was performed as already described above. This measurement was performed in triplicate from three flasks per group, at 1, 3 and 5 days post-removal of treatment.

[12] = test system: DU 145 Human prostatic carcinoma cells; assay: Cell proliferation assay, DU 145; conditions: for Cell Number Doubling Time: 24 hours of exposure (control 2.17)
Method: as §1, §2, §3

[13] = test system: pancreatic tumor xenograph; assay: Mouse pancreatic tumor xenograph assay; type: in vivo; conditions: for tumor volume on day1: baseline
Plasmodium falciparum = assay: ATP levels in the Plasmodium parasite, luciferin/luciferase assay
[14] = test system: PC-3 Human prostatic adenocarcinoma cells; assay: Cell proliferation assay, PC-3; conditions: 24 hours of exposure (control 3.22)
Method: as §1, §2, §3

[15] = test system: Respiratory Syncytial Virus Strain A2-RSV; type: cell-based; conditions: 9.5 μg/ml spinosad, virus load of 50-100 infectious units, HEp2 cells
[16] = test system: Cytomegalovirus, Davis Strain-CMV; assay: Inhibition of Cytomegalovirus in HS27 fibroblasts; conditions: 4.75 μg/ml spinosad, virus load of 50-100 infectious units, HS27 cells
[17] = test system: Plasmodium falciparum 3D7 rings and trophozoites; assay: Susceptibility of different stages of P. falciparum; conditions: 3D7 parasites, 48 h, 1% initial parasitemia
[18] = test system: PC-3 Human prostatic adenocarcinoma cells; conditions: for Cell Survival (% of Control; mean ± S.D.): 24-hour exposure, 24 h post end of exposure
Vero cells = assay: Toxicity assay on Vero cells; type: cell-based, African Green Monkey
[19] = test system: Herpes Simplex Virus type 1, McIntyre (HSV1); assay: Viral Plaque Reduction Assay / inhibition of infection assay, HSV1 in Vero cells; type: cell-based; conditions: 10 μg/ml spinosad
[20] = spinosad 10 μg/mL, succinate substrate
[21] = spinosad 20 μg/mL, succinate substrate
[22] = spinosad 40 μg/mL, succinate substrate
[23] = spinosad 80 μg/mL, succinate substrate
[24] = DU 145, 24 h post end of 24-hour exposure
[25] = BxPC-3, 24 h post end of 24-hour exposure
[26] = MDA-MB-231, 24 h post end of 24-hour exposure
[27] = mouse code 3, total spinosad dosed 390 mg/kg i.p. over 20 days
[28] = mouse code 6, total spinosad dosed 360 mg/kg i.p. over 20 days
[29] = mouse code 9, total spinosad dosed 540 mg/kg i.p. over 20 days
[30] = mouse code 10, total spinosad dosed 540 mg/kg i.p. over 20 days
[31] = mouse code 12, total spinosad dosed 615 mg/kg i.p. over 20 days
[32] = mouse code 13, total spinosad dosed 585 mg/kg i.p. over 20 days
[33] = PC-3, 24 h post end of 24-hour exposure

## Spinosad
[1]
  inhibition of virus: no inhibition
[2]
  IC50: about 17.42 μg/ml
[3]
  IC50: about 0.625 μg/ml
[4]; 20 μg of spinosad
  ADP stimulation: slight increase
[4]; succinate substrate
  spinosad concentration above which mitochondrial integrity is reduced: above 40 μg/mL
[4]; [20]
  State III respiration (numerator of RCR): 711
  State IV respiration (denominator of RCR): 300
[4]; [21]
  State III respiration (numerator of RCR): 726
  State IV respiration (denominator of RCR): 330
[4]; [22]
  State III respiration (numerator of RCR): 666
  State IV respiration (denominator of RCR): 430
[4]; [23]
  State III respiration (numerator of RCR): 598
  State IV respiration (denominator of RCR): 500
[5]; [24]
  Calculated LC50: 12.5 µg/mL
  Calculated LC100: 32.8 µg/mL
[5]; DU 145, spinosad 10 μg/mL
  Cell Survival (% of Control; mean ± S.D.): 56.8 ± 3.1 % of Control
[5]; DU 145, spinosad 20 μg/mL
  Cell Survival (% of Control; mean ± S.D.): 30.2 ± 4.5 % of Control
[5]; DU 145, spinosad 30 μg/mL
  Cell Survival (% of Control; mean ± S.D.): 7.6 ± 4.1 % of Control
[6]
  IC50: 9.5 ± 3.8 µM
H460 cells; 20 μg/mL spinosad, 3 hours of treatment
  cytotoxicity: no cytotoxicity
H460 cells; three hours of treatment
  concentration above which cell viability decreases: higher than 20 μg/mL
[7]
  IC50: 9 ± 3 µM
Plasmodium vinckei
  reduction in the number of Plasmodium vinckei parasites: 70%
[8]
  IC50: about 5 μg/ml
  IC100: about 11.5 μg/ml
[9]; [25]
  Calculated LC50: 11.1 µg/mL
  Calculated LC100: 31.6 µg/mL
[9]; BxPC-3, spinosad 10 μg/mL
  Cell Survival (% of Control; mean ± S.D.): 54.1 ± 9.8 % of Control
[9]; BxPC-3, spinosad 20 μg/mL
  Cell Survival (% of Control; mean ± S.D.): 25.5 ± 2.6 % of Control
[9]; BxPC-3, spinosad 30 μg/mL
  Cell Survival (% of Control; mean ± S.D.): 5.3 ± 2.6 % of Control
[10]; [26]
  Calculated LC50: 13.4 µg/mL
  Calculated LC100: 36.7 µg/mL
[10]; MDA-MB-231, spinosad 10 μg/mL
  Cell Survival (% of Control; mean ± S.D.): 56.1 ± 13.7 % of Control
[10]; MDA-MB-231, spinosad 20 μg/mL
  Cell Survival (% of Control; mean ± S.D.): 38.0 ± 5.7 % of Control
[10]; MDA-MB-231, spinosad 30 μg/mL
  Cell Survival (% of Control; mean ± S.D.): 13.2 ± 1.4 % of Control
[11]
  cell number doubling time from 3 days post-treatment increased by: 27.8-33.2%
[12]; DU 145, spinosad 5 μg/mL
  Cell Number Doubling Time: 2.89 days
[12]; DU 145, spinosad 10 μg/mL
  Cell Number Doubling Time: 2.83 days
[12]; DU 145, spinosad 15 μg/mL
  Cell Number Doubling Time: 3.18 days
[12]; high dose level 15 μg/mL, DU 145
  cell number doubling time from 3 days post-treatment increased by: approximately 46.5%
[13]; CD-1 athymic nude male mice, spinosad in DMSO i.p., on top of weight loss by DMSO alone
  body weight: some weight loss
[13]; mouse code 3, total spinosad dosed 390 mg/kg
  % difference of tumor volume day 21 vs day1: −42%
[13]; [27]
  tumor volume on day 21: 107.7 mm^3
  tumor volume on day1: 184.7 mm^3
[13]; mouse code 6, total spinosad dosed 360 mg/kg
  % difference of tumor volume day 21 vs day1: −2%
[13]; [28]
  tumor volume on day 21: 254.7 mm^3
  tumor volume on day1: 260.6 mm^3
[13]; mouse code 9, total spinosad dosed 540 mg/kg
  % difference of tumor volume day 21 vs day1: −33%
[13]; [29]
  tumor volume on day 21: 119.8 mm^3
  tumor volume on day1: 179.9 mm^3
[13]; mouse code 10, total spinosad dosed 540 mg/kg
  % difference of tumor volume day 21 vs day1: −44%
[13]; [30]
  tumor volume on day 21: 128.9 mm^3
  tumor volume on day1: 228.9 mm^3
[13]; mouse code 12, total spinosad dosed 615 mg/kg
  % difference of tumor volume day 21 vs day1: −11%
[13]; [31]
  tumor volume on day 21: 142.1 mm^3
  tumor volume on day1: 159.4 mm^3
[13]; mouse code 13, total spinosad dosed 585 mg/kg
  % difference of tumor volume day 21 vs day1: 6%
[13]; [32]
  tumor volume on day 21: 246.5 mm^3
  tumor volume on day1: 233.3 mm^3
[13]; spinosad treated group (6 mice), total 360-615 mg/kg i.p. over 20 days, day 21 vs day1, DMSO control 54%, P < 0.02
  mean volume change: −21%
[13]; spinosad treated group, 21st day, control/DMSO group increased 54%, P-value <0.02
  mean tumor volume decreased by: 21%
Plasmodium falciparum; albumin-containing medium (RPMI-1640), within erythrocytes and after isolation, spinosad 5-10 μg/ml in DMSO
  ATP levels in the parasite: reduces
Plasmodium falciparum; isolated parasites in saline/spinosad medium (absence of albumin)
  ATP levels in the parasite: unaffected
[14]; PC-3, spinosad 5 μg/mL
  Cell Number Doubling Time: 4.17 days
[14]; PC-3, spinosad 10 μg/mL
  Cell Number Doubling Time: 5.55 days
[14]; PC-3, spinosad 15 μg/mL
  Cell Number Doubling Time: 6.24 days
[15]
  inhibition of virus: no inhibition
[16]
  inhibition of virus: no inhibition
[17]
  activity against rings versus trophozoites: same activity against both rings and trophozoites
[18]; [33]
  Calculated LC50: 13.3 µg/mL
  Calculated LC100: 34.2 µg/mL
[18]; PC-3, spinosad 10 μg/mL
  Cell Survival (% of Control; mean ± S.D.): 53.8 ± 8.0 % of Control
[18]; PC-3, spinosad 20 μg/mL
  Cell Survival (% of Control; mean ± S.D.): 42.0 ± 9.5 % of Control
[18]; PC-3, spinosad 30 μg/mL
  Cell Survival (% of Control; mean ± S.D.): 5.9 ± 2.5 % of Control
Vero cells
  state of treated cell monolayer: healthy
  toxicity against Vero cells: no toxicity
[19]
  inhibition of approximately 20 infectious units of the HSV1 virus: 100%
[19]; more than approximately 20 infectious units
  inhibition of higher virus loads: not inhibited
